Data on two molecules can be found in patent US6376692B1, “Zirconium alkoxytris (β-Diketonate), process for manufacturing the same, and liquid composition for formation of PZT film” (Kabushikikaisha Kojundokagaku Kenkyusho, priority 1999, dated 2002).

Like-named read-outs stand apart in the source and are kept apart here.

The conditions of the data set: room temperature.

As to `CC(C)(C)C(=O)C=C([O-])C(C)(C)C.CC(C)(C)C(=O)C=C([O-])C(C)(C)C.CC(C)(C)C(=O)C=C([O-])C(C)(C)C.CC(C)[O-].[Zr+4]` [Zr(OiPr)(dpm)3, zirconium isopropoxy tris(dipivaloylmethanate)], the “amount dissolved in 1 liter of the solvent” value (“amount dissolved in 1 liter” for short) (Butyl Acetate) is 460 grams in 1 liter of the solven; the “amount dissolved in 1 liter” value (Hexane) was 620 grams in 1 liter of the solven; the “amount dissolved in 1 liter” value (THF) is 980 grams in 1 liter of the solven; the “amount dissolved in 1 liter” value (Toluene) was 1100 grams in 1 liter of the solven; the “amount dissolved in 1 liter” value (n-Butyl Ether) was 430 grams in 1 liter of the solven.
The like results for `CC(C)(C)C(=O)C=C(O)C(C)(C)C.CC(C)(C)C(=O)C=C(O)C(C)(C)C.CC(C)(C)C(=O)C=C(O)C(C)(C)C.CC(C)(C)C(=O)C=C(O)C(C)(C)C.[Zr]` [Zr(dpm)4] were, in that order, 180 grams in 1 liter of the solven, 430 grams in 1 liter of the solven, 1020 grams in 1 liter of the solven, 290 grams in 1 liter of the solven and 240 grams in 1 liter of the solven.
